Consider four compounds from patent US20090042810A1, “AMPK Deficient Animals, Screening Methods, And Related Therapeutics And Diagnostics” (GenExel-Sein, Inc., priority 2007, published 2009).

Assay [1] concerns LS174T cells. The experiment in a line: AMPK and MRLC phosphorylation in LS174T cells (immunoblot / immunostaining). Format: cell-based, human.
In assay [2] the test system is LS174T cells. The assay can be described thus: Polarization of LS174T cells (actin, polarity markers, brush border). Format: cell-based, human.
Another assay deals with Drosophila S2 cells. The assay can be described thus: Energy deprivation-induced MRLC phosphorylation in Drosophila S2 cells (immunoblot). The assay is classed as cell-based. As to conditions: 50 mM 2DG for 4 hr.
The subject of assay [3] is AMPK holoenzyme purified from rat liver. The experiment in a line: In vitro kinase assay, AMPK holoenzyme purified from rat liver with GST-MRLC / GST-ACC2 substrates. Format: biochemical. As to conditions: 0.3 mM AMP; for Phosphorylation of MRLC by AMPK in presence of inhibitor (32P autoradiography): 10 μM drug added to reaction mixture, GST-MRLC substrate. From the text:
(§1) Fly strains. AMPK^D1 and AMPKD2 lines were generated by imprecise excision (Lee, et al., FEBS Lett. 550, 5-10 (2003)) of AMPK^G505 line (GenExel Inc.). UAS constructs were microinjected into w^1118 embryos. LKB1- and MRLC-mutant lines were described previously (Jordan et al., J. Cell Biol. 139, 1805-1819 (1997); (Karess et al., Cell 65, 1177-1189 (1991); (Lee et al., Cell Death Differ. 13, 110-1122 (2006)). Other lines were obtained from the Bloomington Stock Center. Microscopic analyses of Drosophila tissues. Dark field, phase contrast, and SEM analyses were performed to visualize embryonic cuticle structure. Immunostaining with various antibodies were performed to visualize embryonic epithelial structure. Brain squash preparation was used to analyze genomic integrity. Kinase assays. Phosphotransferase activities were determined in a reaction mixture consisting of HEPES-Brij Buffer, ATP (γ-^32P), and protein substrates. Protein levels were visualized by immunoblot or Coomassie staining. Phosphorylated proteins were visualized by phospho-specific immunoblot or ^32P-autoradiography. Incorporated phosphates were quantified using P81 filter binding assay. Drosophila strains. The AMPK^G505 fly line with an EP-element inserted at the AMPK locus was obtained from the Genisys Collection of EP lines (GenExel Inc., Korea), and subjected to standard imprecise excision (Lee, et al., FEBS Lett. 550, 5-10 (2003); (Lee et al., Cell Death Differ. 13, 110-1122 (2006)). HA-tagged AMPK (AMPK^WT) and its mutant forms (AMPK^KR, AMPK^TA and AMPK^TD) were subcloned into the pUAST vector and microinjected into w^1118 embryos. LKB1^X5, UAS-LKB1, spaghetti-squash^1 (sqh^1), and MRLC^EE (also referred to as sqh^EE) lines were described previously (Jordan et al., J. Cell Biol. 139, 1805-1819 (1997); (Karess et al., Cell 65, 1177-1189 (1991); (Lee et al., Cell Death Differ. 13, 110-1122 (2006)). […] Deletion sites of AMPK^D1 and AMPK^D2 were determined by genomic-PCR analyses. […]

In a further assay the test system is human AMPK (hAMPK). The assay can be described thus: In vitro kinase assay, immunoprecipitated human AMPK with MRLC substrate. Format: biochemical. The note with it: 10 μM drug added to reaction solution.
Description: as §1, with “strains.” for “strains. The AMPK^G505 fly line with an EP-element inserted at the AMPK locus was obtained from the Genisys Collection of EP lines (GenExel Inc., Korea), and subjected to standard imprecise excision (Lee, et al., FEBS Lett. 550, 5-10 (2003); (Lee et al., Cell Death Differ. 13, 110-1122 (2006)). HA-tagged AMPK (AMPK^WT) and its mutant forms (AMPK^KR, AMPK^TA and AMPK^TD) were subcloned into the pUAST vector and microinjected into w^1118 embryos. LKB1^X5, UAS-LKB1, spaghetti-squash^1 (sqh^1), and MRLC^EE (also referred to as sqh^EE) lines were described previously (Jordan et al., J. Cell Biol. 139, 1805-1819 (1997); (Karess et al., Cell 65, 1177-1189 (1991); (Lee et al., Cell Death Differ. 13, 110-1122 (2006)).”

The test system of another assay is human MLCK. The assay can be described thus: In vitro kinase assay, active MLCK with MRLC substrate. Format: biochemical. As to conditions: 10 μM drug added to reaction solution.
Description: as §1, with “strains.” for “strains. The AMPK^G505 fly line with an EP-element inserted at the AMPK locus was obtained from the Genisys Collection of EP lines (GenExel Inc., Korea), and subjected to standard imprecise excision (Lee, et al., FEBS Lett. 550, 5-10 (2003); (Lee et al., Cell Death Differ. 13, 110-1122 (2006)). HA-tagged AMPK (AMPK^WT) and its mutant forms (AMPK^KR, AMPK^TA and AMPK^TD) were subcloned into the pUAST vector and microinjected into w^1118 embryos. LKB1^X5, UAS-LKB1, spaghetti-squash^1 (sqh^1), and MRLC^EE (also referred to as sqh^EE) lines were described previously (Jordan et al., J. Cell Biol. 139, 1805-1819 (1997); (Karess et al., Cell 65, 1177-1189 (1991); (Lee et al., Cell Death Differ. 13, 110-1122 (2006)).”

In another assay the test system is Drosophila AMPK (dAMPK). The assay can be described thus: In vitro kinase assay, immunoprecipitated Drosophila AMPK with MRLC substrate. The note with it: 10 μM drug added to reaction solution. Format: biochemical.
Description: as §1, with “strains.” for “strains. The AMPK^G505 fly line with an EP-element inserted at the AMPK locus was obtained from the Genisys Collection of EP lines (GenExel Inc., Korea), and subjected to standard imprecise excision (Lee, et al., FEBS Lett. 550, 5-10 (2003); (Lee et al., Cell Death Differ. 13, 110-1122 (2006)). HA-tagged AMPK (AMPK^WT) and its mutant forms (AMPK^KR, AMPK^TA and AMPK^TD) were subcloned into the pUAST vector and microinjected into w^1118 embryos. LKB1^X5, UAS-LKB1, spaghetti-squash^1 (sqh^1), and MRLC^EE (also referred to as sqh^EE) lines were described previously (Jordan et al., J. Cell Biol. 139, 1805-1819 (1997); (Karess et al., Cell 65, 1177-1189 (1991); (Lee et al., Cell Death Differ. 13, 110-1122 (2006)).”

Entries after “also recorded” stand apart in the source; their conditions may differ.

Consider `O=CC[C@@H](O)[C@H](O)[C@H](O)CO` [2DG, 2-deoxyglucose], for which, in the assay on LS174T cells [1] (50 mM 2DG, indicated time), the “Activation of AMPK (pAMPK)” value is “activation of AMPK”. Further, the “MRLC phosphorylation (pMRLC) in LS174T cells” value with LS174T cells [1] (2DG treatment) is listed as 2DG-induced phosphorylation of MRLC. Further, in the assay on LS174T cells [2] (50 mM 2DG, 2 hr), the “Distribution of villin, CD66/CEA and CD71/transferrin markers” value was “became dramatically polarized”. Further, the “Cell shape / actin cytoskeleton polarization and brush border-like structure” value in the assay on LS174T cells [2] (50 mM 2DG, 2 hr, serum-free media) was “dramatic change in cell shape to have polarized actin cytoskeleton with a brush border-like structure”. In addition, the “MRLC phosphorylation (pMRLC) in S2 cells” value in the assay with Drosophila S2 cells is “enhanced MRLC phosphorylation”.

Consider `Nc1ncnc2c1ncn2[C@@H]1O[C@H](COP(=O)(O)O)[C@@H](O)[C@H]1O` [AMP], for which, in assay [3] (human GST-MRLC substrate), the “Phosphorylation of full-length MRLC by AMPK on addition of AMP” value is “further enhanced”.

On to `c1cc(-c2cnn3cc(-c4ccc(OCCN5CCCCC5)cc4)cnc23)ccn1` [Compound C], for which the “Phosphorylation of MRLC by AMPK in presence of inhibitor (32P autoradiography)” value in assay [3] was “inhibited the phosphorylation”. Further, the “2DG-induced MRLC phosphorylation, effect of inhibitor” value with LS174T cells [1] (10 μM Compound C 30 min before 50 mM 2DG) was “suppressed”. In the assay with human AMPK (hAMPK), the “Human AMPK phosphorylation of MRLC in presence of drug” value was “specifically inhibited”. Moreover, in the assay on human MLCK, the “MLCK phosphorylation of MRLC in presence of drug” value is reported as “not”. Moreover, the “Drosophila AMPK phosphorylation of MRLC in presence of drug” value with Drosophila AMPK (dAMPK) is “specifically inhibited”. Moreover, the “2DG-induced actin polarization, effect of inhibitor or siRNA” value in the assay with LS174T cells [2] (2DG 2 hr, Compound C 10 μM 30 min before 2DG, or siRNA transfection, listed as CC) is reported as “inhibited; also recorded: suppressed”.

As for `O=S(=O)(c1cccc2c(I)cccc12)N1CCCNCC1` [ML-7], the “Phosphorylation of MRLC by AMPK in presence of inhibitor (32P autoradiography)” value in assay [3] is recorded as “did not”. Further, in the assay with human MLCK, the “MLCK phosphorylation of MRLC in presence of drug” value is on record as “specifically inhibited”. Also, the “Drosophila AMPK phosphorylation of MRLC in presence of drug” value in the assay with Drosophila AMPK (dAMPK) is on record as “not”.
